For assay [1], the target named is T1, Protein kinase C delta type (Homo sapiens, UniProt Q05655). The assay is described as follows: Displacement of [3H]PDBu from protein kinase C delta C1a domain. For orientation: Displacement assays read how much labelled ligand stays bound in the presence of the test substance.
For assay [2], the target named is T2, Protein kinase C epsilon type (Homo sapiens, UniProt Q02156).
T2 sequence (Q02156 whole entry): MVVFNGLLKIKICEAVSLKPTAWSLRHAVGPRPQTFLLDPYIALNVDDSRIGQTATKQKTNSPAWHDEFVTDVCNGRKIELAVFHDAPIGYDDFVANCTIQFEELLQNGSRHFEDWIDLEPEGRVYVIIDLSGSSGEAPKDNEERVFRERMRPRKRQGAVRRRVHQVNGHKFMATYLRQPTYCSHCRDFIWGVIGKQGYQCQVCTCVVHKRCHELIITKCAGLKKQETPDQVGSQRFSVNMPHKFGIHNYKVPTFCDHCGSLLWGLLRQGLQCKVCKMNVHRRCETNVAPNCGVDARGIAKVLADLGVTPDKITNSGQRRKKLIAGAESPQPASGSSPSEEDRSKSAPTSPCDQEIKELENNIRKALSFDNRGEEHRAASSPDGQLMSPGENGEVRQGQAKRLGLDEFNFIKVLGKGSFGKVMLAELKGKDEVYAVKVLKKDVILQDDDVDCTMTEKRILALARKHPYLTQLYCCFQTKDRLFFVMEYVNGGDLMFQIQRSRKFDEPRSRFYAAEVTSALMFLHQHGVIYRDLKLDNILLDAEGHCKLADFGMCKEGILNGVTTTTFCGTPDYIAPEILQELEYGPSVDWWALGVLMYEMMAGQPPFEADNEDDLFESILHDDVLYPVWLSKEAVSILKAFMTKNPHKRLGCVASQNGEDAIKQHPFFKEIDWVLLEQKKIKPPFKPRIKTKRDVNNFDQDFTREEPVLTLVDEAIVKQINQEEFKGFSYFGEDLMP
The assay can be described thus: Displacement of [3H]PDBu from protein kinase C epsilon C1b domain.

The target of assay [3] is T3, Protein kinase C gamma type (Homo sapiens, UniProt P05129). The assay can be described thus: Displacement of [3H]PDBu from protein kinase C gamma C1b domain.
Assay [4] has as its target T1, Protein kinase C delta type. The assay can be described thus: Displacement of [3H]PDBu from protein kinase C delta C1b domain.
Assay [5] deals with Protein kinase C theta type (Homo sapiens, UniProt Q04759). The assay is described as follows: Displacement of [3H]PDBu from protein kinase C theta-C1B domain.
For assay [6], the target named is Protein kinase C eta type (Homo sapiens, UniProt P24723). The assay is described as follows: Displacement of [3H]PDBu from protein kinase C eta C1b domain.
In assay [7] the target is T3, Protein kinase C gamma type. The assay can be described thus: Displacement of [3H]-PDBu from protein kinase C gamma C1a domain.
Assay [8] deals with Protein kinase C beta type (Homo sapiens, UniProt P05771). The assay can be described thus: Displacement of [3H]PDBu from protein kinase C beta C1b domain.
The target in assay [9] is Protein kinase C alpha type (Homo sapiens, UniProt P17252). The assay is described as follows: Displacement of [3H]PDBu from protein kinase C alpha C1b domain.

The Ki is the equilibrium dissociation constant of an inhibitor or competing ligand from its target.

SMILES strings stand for the structures.

Protein kinase C beta type, sequence (P05771 whole entry, the tested form may be a part): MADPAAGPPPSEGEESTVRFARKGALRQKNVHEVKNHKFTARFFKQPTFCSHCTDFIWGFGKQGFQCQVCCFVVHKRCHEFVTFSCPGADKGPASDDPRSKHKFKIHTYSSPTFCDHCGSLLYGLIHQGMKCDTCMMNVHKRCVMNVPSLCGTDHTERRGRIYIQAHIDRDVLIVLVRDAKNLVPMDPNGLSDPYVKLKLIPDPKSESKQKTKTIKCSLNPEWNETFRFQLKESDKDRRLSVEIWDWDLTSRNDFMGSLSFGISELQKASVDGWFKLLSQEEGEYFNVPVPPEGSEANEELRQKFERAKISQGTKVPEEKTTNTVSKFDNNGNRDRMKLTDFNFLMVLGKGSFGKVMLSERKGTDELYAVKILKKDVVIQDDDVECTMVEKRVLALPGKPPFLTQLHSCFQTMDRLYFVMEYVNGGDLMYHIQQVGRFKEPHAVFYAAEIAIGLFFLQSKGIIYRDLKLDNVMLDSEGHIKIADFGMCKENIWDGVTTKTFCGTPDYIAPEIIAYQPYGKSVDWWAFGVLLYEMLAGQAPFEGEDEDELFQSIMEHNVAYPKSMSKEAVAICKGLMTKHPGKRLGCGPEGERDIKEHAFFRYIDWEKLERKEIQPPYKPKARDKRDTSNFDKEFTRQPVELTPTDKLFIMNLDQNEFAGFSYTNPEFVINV
T1 sequence (Q05655 whole entry, the tested form may be a part): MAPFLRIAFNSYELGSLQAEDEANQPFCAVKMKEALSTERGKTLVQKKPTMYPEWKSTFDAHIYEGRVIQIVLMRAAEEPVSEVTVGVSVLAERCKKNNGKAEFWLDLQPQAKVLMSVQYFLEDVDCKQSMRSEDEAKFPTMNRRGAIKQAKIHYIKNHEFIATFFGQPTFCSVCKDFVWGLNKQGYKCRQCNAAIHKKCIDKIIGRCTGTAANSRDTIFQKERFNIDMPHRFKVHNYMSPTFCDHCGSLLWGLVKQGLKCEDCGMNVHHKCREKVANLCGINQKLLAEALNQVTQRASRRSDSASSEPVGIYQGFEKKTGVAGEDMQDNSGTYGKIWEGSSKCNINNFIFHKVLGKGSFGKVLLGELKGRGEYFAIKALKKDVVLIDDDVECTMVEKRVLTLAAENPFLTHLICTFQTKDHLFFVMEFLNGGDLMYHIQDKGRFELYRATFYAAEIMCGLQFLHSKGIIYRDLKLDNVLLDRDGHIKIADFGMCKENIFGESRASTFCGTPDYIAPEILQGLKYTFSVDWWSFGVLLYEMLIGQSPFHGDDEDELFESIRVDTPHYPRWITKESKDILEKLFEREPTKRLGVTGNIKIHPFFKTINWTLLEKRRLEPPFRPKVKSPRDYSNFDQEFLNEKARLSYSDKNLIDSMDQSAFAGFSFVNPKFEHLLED
Protein kinase C theta type, sequence (Q04759 whole entry, the tested form may be a part): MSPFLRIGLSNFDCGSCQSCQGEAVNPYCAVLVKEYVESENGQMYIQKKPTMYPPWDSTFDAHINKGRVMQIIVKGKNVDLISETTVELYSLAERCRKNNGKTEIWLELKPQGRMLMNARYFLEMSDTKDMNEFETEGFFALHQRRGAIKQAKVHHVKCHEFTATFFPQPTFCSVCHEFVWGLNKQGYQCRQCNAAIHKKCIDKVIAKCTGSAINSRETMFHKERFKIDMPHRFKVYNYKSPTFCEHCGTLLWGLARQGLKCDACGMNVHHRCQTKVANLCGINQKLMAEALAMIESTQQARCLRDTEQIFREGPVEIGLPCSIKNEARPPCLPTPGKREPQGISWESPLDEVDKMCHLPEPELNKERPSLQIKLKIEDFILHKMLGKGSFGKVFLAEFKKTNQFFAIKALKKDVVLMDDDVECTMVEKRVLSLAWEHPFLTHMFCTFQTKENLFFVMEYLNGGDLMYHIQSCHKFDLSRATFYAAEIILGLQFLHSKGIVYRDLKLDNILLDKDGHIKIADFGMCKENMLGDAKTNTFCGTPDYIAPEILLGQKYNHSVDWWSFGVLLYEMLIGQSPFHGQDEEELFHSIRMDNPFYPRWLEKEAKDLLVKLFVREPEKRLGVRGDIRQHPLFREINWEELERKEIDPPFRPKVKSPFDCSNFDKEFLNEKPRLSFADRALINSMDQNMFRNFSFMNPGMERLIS
Protein kinase C eta type, sequence (P24723 whole entry, the tested form may be a part): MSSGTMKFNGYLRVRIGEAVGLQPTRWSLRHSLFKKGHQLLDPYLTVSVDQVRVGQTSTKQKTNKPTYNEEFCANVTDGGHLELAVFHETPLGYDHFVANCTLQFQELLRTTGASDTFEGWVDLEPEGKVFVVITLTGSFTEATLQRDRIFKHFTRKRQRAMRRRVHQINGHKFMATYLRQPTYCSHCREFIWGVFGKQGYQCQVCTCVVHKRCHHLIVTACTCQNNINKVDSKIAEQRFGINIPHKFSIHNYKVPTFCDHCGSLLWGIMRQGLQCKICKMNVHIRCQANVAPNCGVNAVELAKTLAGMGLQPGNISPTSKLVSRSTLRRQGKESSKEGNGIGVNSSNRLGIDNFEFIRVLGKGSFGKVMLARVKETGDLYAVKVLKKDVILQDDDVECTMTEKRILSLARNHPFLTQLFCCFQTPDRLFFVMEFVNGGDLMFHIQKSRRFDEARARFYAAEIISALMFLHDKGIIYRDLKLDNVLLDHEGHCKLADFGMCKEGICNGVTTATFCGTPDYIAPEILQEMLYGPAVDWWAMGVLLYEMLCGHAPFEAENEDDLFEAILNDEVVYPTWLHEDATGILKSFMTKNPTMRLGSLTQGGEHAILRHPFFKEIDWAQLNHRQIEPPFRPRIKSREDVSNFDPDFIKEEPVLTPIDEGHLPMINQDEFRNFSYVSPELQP

As for `CCCCCCCC(=O)O[C@H]1/C(=C/C(=O)OC)CC2C[C@H]([C@@H](C)O)OC(=O)C[C@H](O)CCO[C@H](C(C)(C)C)C[C@@H]3CCO[C@H](/C=C/C(C)(C)[C@]1(O)O2)O3`, the inhibitory constant (Ki) was 85.4 nM in [1]; 55 nM in [2]; above 500 nM in assay [3]; 6.3 nM in assay [4]; 24.1 nM in assay [5]; 70.2 nM in assay [6]. Moreover, the Ki in assay [7] was above 500 nM; in assay [8] it was 36.4 nM; in assay [9], above 500 nM.
`CCCCCCCC(=O)O[C@H]1/C(=C/C(=O)OC)CC2C[C@H]([C@@H](C)O)OC(=O)C[C@@H](O)C[C@@H]3CCC[C@H](C[C@@H]4CCO[C@H](/C=C/C(C)(C)[C@]1(O)O2)O4)O3`: the Ki was 494 nM in [1]; 490 nM in assay [2]; above 500 nM in assay [3]; 64.2 nM in assay [4]; 147 nM in assay [5]; above 500 nM in assay [6]. Besides, the inhibitory constant (Ki) in assay [7] is above 500 nM; in [8], 280 nM; in assay [9], above 500 nM.
For `CCCCCCCC(=O)O[C@H]1/C(=C/C(=O)OC)CC2C[C@H]([C@@H](C)O)OC(=O)C[C@H](O)C[C@@H]3CCC[C@H](C[C@@H]4CCO[C@H](/C=C/C(C)(C)[C@]1(O)O2)O4)O3`, the inhibition constant Ki in [1] is 65.9 nM; in [2], 17.9 nM; in assay [3], above 500 nM; in assay [4], 2.5 nM; in assay [5], 6.6 nM; in assay [6], 23.5 nM. The Ki in assay [7] is above 500 nM; in assay [8], 13.4 nM; in assay [9], 126 nM.

The values above are taken from ChEMBL document CHEMBL1131753, “Selective binding of bryostatin analogues to the cysteine rich domains of protein kinase C isozymes” (Bioorg Med Chem Lett, 1999).
